Consider one compound from patent US11236102B2, “Oxabicycloheptane prodrugs” (Lixte Biotechnology, Inc., priority 2015, dated 2022).

One series can be described thus: in vivo. The conditions noted are these: rat, iv, 1.4 mg/kg; for Kp at 0.25 hr / Kp at 1 hr / Kp at 2 hr: Liver-plasma concentration ratio of Endothal. How it is done:
113 was dissolved in 4% NaHCO3 in saline for IV administration. The detailed procedure of dosing solution preparation was presented in Appendix I.
15 animals were placed on the study. The animals in IV arm were free access to food and water. For PO dose group, the animals were fasted overnight prior to dosing and the food was resumed 4 hours postdose.
The IV injection was conducted via foot dorsal vein. PO via oral gavage.
Blood collection: The animal is restrained manually. Approximately 200 μL of blood/time point is collected into sodium heparin tube via cardiac puncture for terminal bleeding (anesthetized under carbon dioxide). Blood sample will be put on ice and centrifuged to obtain plasma sample (2000 g, 5 min under 4° C.) within 10 minutes.
Liver collection: The animal will be euthanized with carbon dioxide inhalation. Open abdominal cavity with scissor to expose internal organs. Hold the carcass in an upright position and allow the organs to fall forward. Cut the connective tissues and remove the organs. Then the organs are rinsed with cold saline, dried on filtrate paper, placed into a screw-top tube and weighed, snap frozen by placing into dry-ice immediately.
Brain collection: Make a mid-line incision in the animals scalp and retract the skin. Using small bone cutters and rongeurs, remove the skull overlying the brain. Remove the brain using a spatula and rinse with cold saline, dried on filtrate paper, placed into a screw-top tube and weighed, snap frozen by placing into dry-ice immediately. […] Plasma, brain and liver samples were stored at approximately −80° C. until analysis. The backup samples will be discarded after three weeks after in-life completion unless requested. The unused dosing solutions will be discarded within three weeks after completion of the study.
Pharmacokinetic Analysis Software: The PK parameters were determined by non-compartmental model of non-compartmental analysis tool, Pharsight Phoenix WinNonlin® 6.2 software. […] Concentration data within 80%-120% of LLOQ was considered within normal instrumental variation and presented in the results. Terminal t1/2 calculation: Time points were automatic selected by “best fit” model for terminal half life estimation as the first option. Manual selection was applied when “best fit” could not well define the terminal phase. Results

Series [1] in a line: Pharmacokinetic study of 153 (iv, po) in SD rats: 153 and endothal in plasma, liver, brain. Type of series: in vivo, SD rats. The following applies: for Endothal plasma concentration: individual rats. As for the experimental part: The blood, liver and brain tissue samples were collected at predetermined times from rats. […] Compound were diluted shortly before use in 4% sodium bicarbonate for sterile injection (this is the standard pediatric solution of NaHCO3 with a pH of about 8.5).
Compound 153 was freshly prepared by diluting the drugs shortly before use in 4% sodium bicarbonate for sterile injection (this is the standard pediatric solution of NaHCO3 with a pH of about 8.5). The final concentrations of 153 solutions were 0.25 mg/mL. The 153 solutions were administered via iv or po route at dose volume of 5 ml/kg according to the latest body weight. Compound 157 was freshly prepared by diluting the drugs shortly before use in 4% sodium bicarbonate for sterile injection (this is the standard pediatric solution of NaHCO3 with a pH of about 8.5). The final concentrations of […] solutions were 0.3 mg/mL. The 157 solutions were administered via iv or po route at dose volume of 5 ml/kg according to the latest body weight.
Twelve (12) female SD rats per group were dosed by iv with 153 or 157. The rats were fasted overnight prior to dosing, with free access to water. Foods were withheld for 2 hours post-dose. Blood, liver and brain tissue samples in two animals each group were collected at each time point, within 10% of the scheduled time for each time point. Two extra animals were used for analytic method development.
Blood (>0.3 mL) were collected via aorta abdominalis in anaesthetic animals into tubes containing heparin at 15 min, 1, 2, 6, 10 and 24 hours after iv administration. Liver and brain tissues were collected immediately after animal death. The liver and brain tissues were excised and rinsed with cold saline to avoid blood residual. Upon collection, each sample was placed on ice and the blood samples were subsequently centrifuged (4° C., 11000 rpm, 5 min) to separate plasma.
The obtained plasma, liver and brain tissue samples were stored at −70° C. until LC-MS/MS analysis.
Two (2) female SD rats per group were dosed by po with 153 or 157. The rats were fasted overnight prior to dosing, with free access to water. Foods were withheld for 2 hours post-dose. Blood samples (>0.3 mL) were collected via aorta abdominalis in anaesthetic animals into tubes containing heparin at 30 min, 1, 2, 6, 10 and 24 hours after po administration.
To each sample, 20 μL IS-D (for blank samples, 20 μL acetonitrile:water (1:1) was added) and 300 μl acetonitrile was added. The sample mixture was vortexed for approximately 3 min. After centrifugation at 10000 rpm for 5 min at 4° C., 100 μL of the upper layer was transferred to a new tube and added 200 μL 0.4% formic acid in water (pH 6.0). The mixture was vortexed for approximately 3 min before injected onto the LC/MS/MS system for analysis.
On the day of the assay, the frozen liver and brain samples were thawed unassisted at room temperature. An about 200 mg weighed sample of each thawed tissue was placed into a plastic tube with water (0.6 mL) to facilitate homogenization. Tissue processing was conducted using a homogenizer for approximately 1 min, 200 μl homogenate was transferred into a fresh Eppendorf tube. To each tube, 50 μL IS-D was added and mixed. Then 600 ul acetonitrile was added and the sample mixture was vortexed for approximately 3 min. After centrifugation at 10000 rpm for 5 min at 4° C., 400 μL of the upper layer was transferred to a new tube and evaporate the supernatant to dryness at 35° C. Reconstitute the residue with 200 μL of 0.4% formic acid in water (pH6.0), and vortex for 3 min, submit for LC-MS/MS analysis.
Frozen unknown plasma samples were completely thawed at room temperature and vortexed thoroughly. With a pipette, 50 μL of plasma was transferred into a 2.0 mL Eppendorf tube. 50 μL of 0.1N HCl and 800 μL ethyl acetate were added into each sample. The sample mixture was vortexed for approximately 3 min.

Where [2] appears, read: male, SD, liver concentration of Endothal.

“Also recorded” adds a separate entry of the source.

Regarding `O=C(O)C1C2CCC(O2)C1C(=O)O` (stereo not shown) [Endothal, 7-oxabicyclo[2.2.1]heptane-2,3-dicarboxylic acid], in “in vivo” (male, SD), the Kp (in general, tissue or fluid exposure divided by exposure in the circulation) at 0.25 hr came to 29.2; the Kp at 1 hr was determined as 27.9; the concentration ratio (Kp) at 2 hr is 23. The Kp at 0.25 hr in “in vivo” (male, SD, 113 IV 1.4 mg/kg, SD rats, 0.25 hr, mean) was 22.7. The Kp at 1 hr in “in vivo” (male, SD, 113 IV 1.4 mg/kg, SD rats, 1 hr, individual) came to 21.7. Moreover, the Kp at 2 hr in “in vivo” (male, SD, 113 IV 1.4 mg/kg, SD rats, 2 hr, individual) amounted to 45.7. In addition, in “in vivo” (setting [2]), the concentration at 0.25 hr is 727 ng/g, the concentration at 1 hr worked out at 902 ng/g, the concentration at 2 hr was determined as 998 ng/g and the concentration at 6 hr was 526 ng/g. In addition, in “in vivo” (setting [2]), the concentration at 10 hr turned out to be 288 ng/g and the concentration at 24 hr came to 66.9 ng/g. The compound further had a concentration at 2 hr in the series “in vivo” (male, SD, plasma concentration of Endothal) of 30.4 ng/mL. In “in vivo”, the “AUC(0-last) in liver” value turned out to be 8086 ng·h/g and the “AUC(0-∞) in liver” value came to 8678 ng·h/g. In addition, the “detectability in brain samples” value in series [1] (endothal after single iv 153 at 1.25 mg/kg, 1.25 mg/kg) is “not detectable; also recorded: undetectable”. Further, the Cmax (in general, the maximum level reached in the sampled fluid or tissue) in series [1] (female, SD, rat, in vivo, po, 1.25 mg/kg) was 46.9 ng/mL. Moreover, in series [1] (female, Sprague-Dawley, rat, in vivo, iv, 1.25 mg/kg), the AUC (in general, concentration integrated over time) was found to be 378 ng·h/mL. Besides, in series [1] (iv administration of 153, 10 hr), the Endothal plasma concentration entry is “BLQ”. In series [1] (iv administration of 153, 24 hr), the Endothal plasma concentration result was “BLQ”. Moreover, the Endothal plasma concentration entry in series [1] (po administration of 153, 10 hr) is “BLQ”. In series [1] (rat, in vivo, iv, 1.25 mg/kg), the AUClast in liver was found to be 10820 ng·h/g.
